The results in this text go back to patent US12060408B2, “Screening assays, modulators and modulation of activation of Receptor for Advanced Glycation End-products (RAGE)” (Monash University, priority 2017, dated 2024).

Experiment [1] relates to primary murine aortic endothelial cells (PMAEC). The experiment in a line: Expression of pro-inflammatory markers by real-time RT-PCR in primary murine aortic endothelial cells. The format is cell-based, mouse. The procedure:
Primary aortic endothelial cells (PMAEC) were isolated from the aortae of (wild-type) C57bl6 mice and AGER KO mice and cultured in Dulbecco's modified Eagle's medium (DMEM)/F12 endothelial cell growth supplement (ECGS) supplemented media. Chinese Hamster Ovary (CHO) cells were cultured using F12 media (10% FCS with 2 mM glutamine). Human microvascular endothelial cells (HMEC) were cultured in MCDB 131 medium (10% FCS with 10 mM glutamine, EGF and hydrocortisone).
(§1) Cellular Expression of Pro-Inflammatory Markers and Mediators by Quantitative Real-Time PCR
(§2) After 2 hours of exposure to Ang II (1 μM) or the RAGE ligand, S100A8/A9 (5 ng/ml) cells were placed in Trizol, mRNA extracted and cDNA synthesized. Changes in the gene expression of the NFκB subunit, p65 (RelA) or NFκB-activated target genes (e.g ICAM-1, VCAM-1) were estimated by quantitative real-time RT-PCR, performed using the TaqMan system based on real-time detection of accumulated fluorescence (ABI Prism 7700, Perkin-Elmer Inc, PE Biosystems, Foster City, CA, USA). Gene expression was normalized to 18S mRNA and reported as fold change compared to the level of expression in untreated control mice/cells, which were given an arbitrary value of 1.
Selective Silencing of Gene Expression Using siRNA
PMAEC from C57b/6 mice were also transfected with siRNA to RAGE (2 nM) Ambion, ID:s62119), p65 (RelA) (10 nM; Ambion, ID:s72857), MyD88 (10 nM; Ambion. ID:s201719), PKCζ (10 nM; Ambion, ID:s71716), IQGAP-1, Ambion, ID:s78119), Diaph1 (10 nM; sense5′-[…], antisense 3′-[…]; Invitrogen) or scrambled control #1 (2 nM or 10 nM; Ambion) using Lipofectamine RNAiMAX (Invitrogen) as per manufacturer's instructions. Cells were allowed to recover in media containing 10% FBS for 16 hours prior to treatment with 1 μM Ang II or 5 ng/ml of the RAGE ligand, S100A8/A9, as a signalling control.
(In general: Quantitative PCR measures a nucleic acid by following its amplification.)

A further experiment has as its target T1, IQGAP-1 (Cricetulus griseus, UniProt A0A8C2MPD4).
T1 construct: 5×10^7 CHO cells stably transfected with Hs-AT1R were lysed using RIPA buffer; endogenous in cells; host or cells: lysate of CHO cells stably transfected with Hs-AT1R
Description: Pull down from cytosolic components on a column coated with S391A-RAGE362-404. The format is binding. The following applies: column coated with the peptide. An excerpt: FIG. 11C. Pull down of a protein identified as IQGAP-1 from other cytosolic components using a column coated with the mutant RAGE cytosolic tail (S391A-RAGE362-404), as well as IQGAP-1 associated proteins, ezrin/radixin/moesin and the GPCR olfactory receptor 2T2.

The subject of experiment [2] is RAGE ligand-independent activation of RAGE by activated AT1R. Description: Ang II-induced NFκB activation (p65 gene expression, SEAP reporter) in AT1R-CHO cells with RAGE constructs. The format is cell-based, human. The procedure: Generation of Transgenic Chinese Hamster Ovary Cells
100 ng of AT1R-Rluc8 construct was transfected into CHO cells using Lipofectamine 2000 (Thermo). Stable transfectants were selected using G418. AT1R—CHO were then transiently transfected with RAGE constructs using Lipofectamine 2000 (Invitrogen) and incubated for 16 h. The Homo sapiens AGER transcript variant 1 coding sequence (NM_001136) was synthesised and cloned between the NheI and XbaI sites of pCIneo (Promega) to generate the vector pCIneo-RAGE. This plasmid was then used to generate a library of mutant AGER clones (NP_001127). Primers 1-RAGE-SP-5′ and mCherry-XhoI-NotI-3′ were used to amplify the coding sequence of mCherry from the vector pmCherry-C1. The resultant PCR product was then used as template for a second PCR using primers 2-RAGE-SP-5′ and mCherry-XhoI-NotI-3′. The PCR product generated was digested with NheI and NotI and inserted between the NheI and NotI sites of pCIneo to generate pCIneo-SP-mCherry. The sequence of the insert was confirmed by DNA sequencing (Micromon, Monash University). […]
as §1, §2
Oligopeptides (Cherry-TAT (control), mCherry-TAT-RAGE362-404 and mCherry-S391A-TAT-RAGE362-404 were generated by transformation of the Escherichia coli strain ClearColi BL21 (DE3; Lucigen). A single transformed colony was inoculated into 50 ml 2YT medium containing 100 μg/ml ampicillin and the culture was grown overnight at 37° C. with shaking at 250 rev/min. 10 ml overnight culture was used to inoculate 1 litre 2YT medium containing 100 μg/ml ampicillin and the culture was grown at 37° C. with shaking at 250 rev/min. When the cultures reached an OD600 of 0.8, the temperature was shifted to 15° C. for 30 min after which protein expression was induced by the addition of 1 mM isopropyl β-D-1-thiogalacto-pyranoside (IPTG). Following the addition of IPTG the cultures were grown for ˜16 h at 15° C. with shaking at 250 rev/min. Cells were harvested by centrifugation (3500 g, 4° C., 20 min) and resuspended in ice-cold lysis buffer (50 mM Tris pH 7.4, 300 mM NaCl, 10 mM imidazole and 5 mM beta-mercaptoethanol). The resuspended cells were sonicated and insoluble material was pelleted by centrifugation (13 000 g, 4° C., 30 min). The supernatant was filtered (0.2 μm) and applied onto a gravity-flow column with a 1 ml Ni-NTA Agarose resin bed volume (Qiagen) pre-equilibrated with lysis buffer. After the supernatant was passed over the resin, the column was washed with 100 ml of wash buffer (20 mM imidazole, 50 mM Tris pH 7.4, 150 mM NaCl, 5 mM beta-mercaptoethanol). His-tagged TAT-mCherry and TAT-mCherry-RAGE peptides were eluted from the resin using elution buffer (250 mM imidazole, 50 mM Tris pH 7.4, 150 mM NaCl, 5 mM beta-mercaptoethanol). […]

“Also recorded” adds a separate entry of the source.

T1 sequence (A0A8C2MPD4 1-1657): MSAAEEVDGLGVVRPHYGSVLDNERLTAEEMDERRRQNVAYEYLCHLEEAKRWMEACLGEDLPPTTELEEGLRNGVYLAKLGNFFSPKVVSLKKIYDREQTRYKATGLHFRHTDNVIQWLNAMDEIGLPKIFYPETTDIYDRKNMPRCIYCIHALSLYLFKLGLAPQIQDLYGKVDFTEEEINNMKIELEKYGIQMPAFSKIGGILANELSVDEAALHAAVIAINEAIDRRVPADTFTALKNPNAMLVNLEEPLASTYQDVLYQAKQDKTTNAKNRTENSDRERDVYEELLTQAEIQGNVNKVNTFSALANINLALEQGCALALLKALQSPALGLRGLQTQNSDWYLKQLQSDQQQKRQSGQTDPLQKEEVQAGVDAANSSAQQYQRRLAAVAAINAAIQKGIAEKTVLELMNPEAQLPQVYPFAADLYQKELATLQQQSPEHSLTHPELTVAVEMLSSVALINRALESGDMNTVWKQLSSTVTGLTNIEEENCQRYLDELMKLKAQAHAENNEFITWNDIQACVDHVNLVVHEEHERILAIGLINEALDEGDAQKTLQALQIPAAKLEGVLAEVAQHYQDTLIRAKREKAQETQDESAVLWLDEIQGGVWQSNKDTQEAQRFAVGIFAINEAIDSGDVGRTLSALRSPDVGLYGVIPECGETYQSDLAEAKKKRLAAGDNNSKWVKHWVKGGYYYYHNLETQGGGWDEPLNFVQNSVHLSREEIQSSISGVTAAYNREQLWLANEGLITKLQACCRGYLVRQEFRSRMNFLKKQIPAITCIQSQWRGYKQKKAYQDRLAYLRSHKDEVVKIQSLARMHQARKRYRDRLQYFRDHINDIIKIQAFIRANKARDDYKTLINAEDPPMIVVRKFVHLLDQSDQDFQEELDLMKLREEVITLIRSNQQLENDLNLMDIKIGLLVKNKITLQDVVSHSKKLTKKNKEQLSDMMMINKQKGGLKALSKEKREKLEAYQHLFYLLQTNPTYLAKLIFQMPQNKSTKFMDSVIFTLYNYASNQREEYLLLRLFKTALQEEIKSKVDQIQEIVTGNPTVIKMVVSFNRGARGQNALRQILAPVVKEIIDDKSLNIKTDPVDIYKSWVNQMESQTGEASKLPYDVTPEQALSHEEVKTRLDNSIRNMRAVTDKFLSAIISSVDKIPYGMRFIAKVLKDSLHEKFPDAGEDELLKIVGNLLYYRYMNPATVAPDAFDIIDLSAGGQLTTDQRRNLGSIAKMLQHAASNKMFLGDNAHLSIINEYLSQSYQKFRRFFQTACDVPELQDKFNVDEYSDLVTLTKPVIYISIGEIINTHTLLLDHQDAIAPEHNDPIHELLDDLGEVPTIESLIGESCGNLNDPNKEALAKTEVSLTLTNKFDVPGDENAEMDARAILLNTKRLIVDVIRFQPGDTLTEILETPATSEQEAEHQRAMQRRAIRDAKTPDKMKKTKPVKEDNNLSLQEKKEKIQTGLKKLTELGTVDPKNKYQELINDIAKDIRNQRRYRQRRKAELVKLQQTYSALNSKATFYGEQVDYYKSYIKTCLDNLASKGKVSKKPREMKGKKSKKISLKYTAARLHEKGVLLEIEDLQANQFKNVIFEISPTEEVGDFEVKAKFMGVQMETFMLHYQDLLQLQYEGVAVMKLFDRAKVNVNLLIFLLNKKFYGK

For the substance “L362WQRRQRRGEERKAPENQEEEEERAELNQAEEPEAGESSTGGP404 (LWQRRQRRGEERKAPENQEEEEERAELNQAEEPEAGESSTGGP; listed as Homo sapiens) [S391A-RAGE362-404, S391A mutant RAGE cytosolic tail; non-functional substitute for RAGE]”, the “inhibition of VCAM-1 induction in response to Ang II or S100A8/A9” value in experiment [1] (PMAEC endogenously replete in RAGE) is “inhibitory effect”. The “pull down of IQGAP-1 (and ezrin/radixin/moesin, olfactory receptor 2T2) from cytosolic components” value in the experiment with IQGAP-1 was “Pull down”. Besides, in experiment [2] (AT1R-CHO cells), the “inhibition of Ang II-dependent p65 induction after pre-treatment with wild-type RAGE362-404 peptide” value is on record as “not reversed” and the “inhibition of Ang II-dependent p65 induction with subsequent wild-type RAGE362-404 in thousand-fold excess” value is reported as “observed”. In addition, the “inhibition of Ang II-induced p65 and PCNA gene expression in the absence of targets for RAGE phosphorylation” value in experiment [2] (AT1R-CHO cells transfected with full length S391Q-cRAGE) is “maintained; also recorded: inhibitory effects”. In addition, the “ability of the RAGE construct to be activated and mediate pro-inflammatory signalling in response to Ang II” value in experiment [2] (construct expressed in AT1R-CHO cells, no wild-type RAGE) was “not activated”. Besides, the “inhibition of RAGE ligand-independent activation of wild-type RAGE by activated AT1R” value in experiment [2] (summary statement, cell system not given) was “inhibits”.
Regarding “angiotensin II (DRVYIHPF) [Ang II, cognate ligand of AT1R]”, in experiment [1] (PMAEC from AGER KO mice), the “induction of pro-inflammatory genes” value is listed as “does not lead to the induction” and the “markers of canonical or non-canonical activation of NFκB” value was “does not lead to”. Also, the “canonical and non-canonical signalling downstream of NFκB (CXCL2, CXCL12)” value in experiment [1] (PMAEC from C57bl6 mice) was “induction of both canonical and non-canonical signalling”. Also, the “expression of pro-inflammatory genes (ICAM-1, VCAM-1, TNFα, MCP-1)” value in experiment [1] (PMAEC from C57bl6 mice, Ang II 1 μM or S100A8/A9) is recorded as “increased expression”. The “NFκB-dependent induction of VCAM-1 gene expression” value in experiment [1] (PMAEC with AGER expression silenced using siRNA) is listed as “preventing”. For the same substance, in experiment [2] (AT1R-CHO cells expressing full-length human RAGE, 1 μM), the “activation of p65-NFκB” value was “able to induce activation”. In addition, the “expression of p65-NFκB / NFκB activation” value in experiment [2] (AT1R-CHO cells without RAGE, 1 μM) is listed as “unable to induce”.
